According to ChEMBL document CHEMBL1201861, “Genomics of Drug Sensitity in Cancer screening data, Wellcome Trust Sanger Institute”:

Assays:
TUR = assay: cells; assay type: functional, cell-based, Homo sapiens; details: Homo sapiens, TUR;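 further: growth inhibition of human TUR cells, read out with a cell viability assay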
Description: SANGER: Inhibition of human TUR cell growth in a cell viability assay.

SNU-16 = assay: cells; assay type: functional, cell-based, Homo sapiens; details: Homo sapiens, SNU-16;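 further: growth inhibition of human SNU-16 cells, determined with a cell viability readout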
Description: SANGER: Inhibition of human NCI-SNU-16 cell growth in a cell viability assay.

CESS = assay: SANGER: Inhibition of human CESS cell growth in a cell viability assay.; assay type: functional, cell-based; details: Homo sapiens, CESS
NB7 = assay: cells; assay type: functional, cell-based, Homo sapiens; details: Homo sapiens, NB7;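 further: growth inhibition of NB7 cells, read out with a cell viability assay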
Description: SANGER: Inhibition of human NB7 cell growth in a cell viability assay.

RPMI-6666 = assay: cells; assay type: functional, cell-based, Homo sapiens; details: Homo sapiens, RPMI-6666
Description: SANGER: Inhibition of human RPMI-6666 cell growth in a cell viability assay.

SNU-C1 = assay: cells; assay type: functional, cell-based, Homo sapiens; details: Homo sapiens, SNU-C1;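 further: growth inhibition of SNU-C1 human cells, read out by a cell viability assay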
Description: SANGER: Inhibition of human SNU-C1 cell growth in a cell viability assay.

D-542MG = assay: cells; assay type: functional, cell-based, Homo sapiens; details: Homo sapiens, D-542MG
Description: SANGER: Inhibition of human D-542MG cell growth in a cell viability assay.

NCI-H719 = assay: cells; assay type: functional, cell-based, Homo sapiens; details: Homo sapiens, NCI-H719;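 further: growth inhibition of the cultured cell line, read out with a viability assay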
Description: SANGER: Inhibition of human NCI-H719 cell growth in a cell viability assay.

NCI-H345 = assay: cells; assay type: functional, cell-based, Homo sapiens; details: Homo sapiens, NCI-H345;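 further: growth inhibition of NCI-H345 cells measured with a cell viability assay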
Description: SANGER: Inhibition of human NCI-H345 cell growth in a cell viability assay.

NCI-H2141 = assay: cells; assay type: functional, cell-based, Homo sapiens; details: Homo sapiens, NCI-H2141;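 further: growth inhibition of human NCI-H2141 cells, read out with a cell viability assay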
Description: SANGER: Inhibition of human NCI-H2141 cell growth in a cell viability assay.

IM-9 = assay: SANGER: Inhibition of human IM-9 cell growth in a cell viability assay.; assay type: functional, cell-based; details: Homo sapiens, IM-9
MDA-MB-453 = assay: cells; assay type: functional, cell-based, Homo sapiens; details: Homo sapiens, MDA-MB-453
Description: SANGER: Inhibition of human MDA-MB-453 cell growth in a cell viability assay.

K052 = assay: cells; assay type: functional, cell-based, Homo sapiens; details: Homo sapiens, K052;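 further: Read-out from a cell viability assay, IC50 reflecting suppression of K052 cell growth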
Description: SANGER: Inhibition of human K052 cell growth in a cell viability assay.

NCI-H650 = assay: cells; assay type: functional, cell-based, Homo sapiens; details: Homo sapiens, NCI-H650;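 further: growth inhibition of NCI-H650 cells, read out by a viability assay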
Description: SANGER: Inhibition of human NCI-H650 cell growth in a cell viability assay.

NCI-H2405 = assay: cells; assay type: functional, cell-based, Homo sapiens; details: Homo sapiens, NCI-H2405;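 further: growth inhibition of the human cell line, read out with a cell viability assay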
Description: SANGER: Inhibition of human NCI-H2405 cell growth in a cell viability assay.

CHL-1 = assay: cells; assay type: functional, cell-based, Homo sapiens; details: Homo sapiens, CHL-1;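 further: cell growth inhibition, read out with a cell viability assay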
Description: SANGER: Inhibition of human CHL-1 cell growth in a cell viability assay.

OE19 = assay: cells; assay type: functional, cell-based, Homo sapiens; details: Homo sapiens, OE19;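 further: growth inhibition of OE19 cells, measured through a cell viability read-out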
Description: SANGER: Inhibition of human OE19 cell growth in a cell viability assay.

HCC70 = assay: cells; assay type: functional, cell-based, Homo sapiens; details: Homo sapiens, HCC70;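 further: cell viability assay measuring how strongly the compound suppresses proliferation of HCC70 cells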
Description: SANGER: Inhibition of human HCC70 cell growth in a cell viability assay.

SK-MEL-28 = assay: cells; assay type: functional, cell-based, Homo sapiens; details: Homo sapiens, SK-MEL-28;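 further: growth inhibition of human SK-MEL-28 cells, read out with a cell viability assay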
Description: SANGER: Inhibition of human SK-MEL-28 cell growth in a cell viability assay.

A-375 = assay: cells; assay type: functional, cell-based, Homo sapiens; details: Homo sapiens, A-375;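 further: growth inhibition of A375 cells, read out with a cell viability assay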
Description: SANGER: Inhibition of human A375 cell growth in a cell viability assay.

HuCCT-1 = assay: cells; assay type: functional, cell-based, Homo sapiens, HuCCT1; details: Homo sapiens, HuCCT-1;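 further: growth inhibition of HuCCT-1 cells, read out by a cell viability assay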
Description: SANGER: Inhibition of human HuCCT1 cell growth in a cell viability assay.

23132-87 = assay: cells; assay type: functional, cell-based, Homo sapiens; details: Homo sapiens
Description: SANGER: Inhibition of human 23132-87 cell growth in a cell viability assay.

CAL-54 = assay: cells; assay type: functional, cell-based, Homo sapiens; details: Homo sapiens, CAL-54;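 further: growth inhibition of CAL-54 cells, read out by a viability measurement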
Description: SANGER: Inhibition of human CAL-54 cell growth in a cell viability assay.

J82 = assay: cells; assay type: functional, cell-based, Homo sapiens; details: Homo sapiens, J82;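 further: growth inhibition of J82 cells, read out with a cell viability assay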
Description: SANGER: Inhibition of human J82 cell growth in a cell viability assay.

NCI-H1703 = assay: cells; assay type: functional, cell-based, Homo sapiens; details: Homo sapiens, NCI-H1703;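 further: growth inhibition of NCI-H1703 cells, read out via a cell viability assay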
Description: SANGER: Inhibition of human NCI-H1703 cell growth in a cell viability assay.

C-33-A = assay: cells; assay type: functional, cell-based, Homo sapiens; details: Homo sapiens, C-33-A;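 further: cell viability assay measuring growth inhibition of C-33-A cells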
Description: SANGER: Inhibition of human C-33-A cell growth in a cell viability assay.

DMS-273 = assay: cells; assay type: functional, cell-based, Homo sapiens; details: Homo sapiens, DMS-273
Description: SANGER: Inhibition of human DMS-273 cell growth in a cell viability assay.

ASPC1 = assay: cells; assay type: functional, cell-based, Homo sapiens; details: Homo sapiens, ASPC1;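 further: growth inhibition of AsPC-1 cells, read out with a cell viability assay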
Description: SANGER: Inhibition of human AsPC-1 cell growth in a cell viability assay.

HCC1419 = assay: cells; assay type: functional, cell-based, Homo sapiens; details: Homo sapiens, HCC1419;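 further: growth inhibition of human HCC1419 cells, read out as cell viability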
Description: SANGER: Inhibition of human HCC1419 cell growth in a cell viability assay.

BEN = assay: cells; assay type: functional, cell-based, Homo sapiens; details: Homo sapiens, BEN;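 further: growth inhibition of the BEN cell line, read out with a cell viability assay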
Description: SANGER: Inhibition of human BEN cell growth in a cell viability assay.

DU-145 = assay: cells; assay type: functional, cell-based, Homo sapiens; details: Homo sapiens, DU-145
Description: SANGER: Inhibition of human DU-145 cell growth in a cell viability assay.

RD = assay: cells; assay type: functional, cell-based, Homo sapiens; details: Homo sapiens, RD
Description: SANGER: Inhibition of human RD cell growth in a cell viability assay.

HPAF-II = assay: cells; assay type: functional, cell-based, Homo sapiens; details: Homo sapiens, HPAF-II;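 further: growth inhibition of HPAF-II cells, read out with a cell viability assay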
Description: SANGER: Inhibition of human HPAF-II cell growth in a cell viability assay.

SW1573 = assay: cells; assay type: functional, cell-based, Homo sapiens; details: Homo sapiens, SW1573;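 further: growth inhibition of SW1573 cells, read out with a cell viability assay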
Description: SANGER: Inhibition of human SW1573 cell growth in a cell viability assay.

DK-MG = assay: cells; assay type: functional, cell-based, Homo sapiens; details: Homo sapiens, DK-MG;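 further: growth inhibition of DK-MG cells, read out with a cell viability assay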
Description: SANGER: Inhibition of human DK-MG cell growth in a cell viability assay.

CAL-27 = assay: cells; assay type: functional, cell-based, Homo sapiens; details: Homo sapiens, CAL-27;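 further: Viability-based readout, IC50 reflecting inhibition of CAL-27 cell growth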
Description: SANGER: Inhibition of human CAL-27 cell growth in a cell viability assay.

NCI-H810 = assay: cells; assay type: functional, cell-based, Homo sapiens; details: Homo sapiens, NCI-H810;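 further: IC50 reflects inhibition of cancer cell line growth, read out with a cell viability assay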
Description: SANGER: Inhibition of human NCI-H810 cell growth in a cell viability assay.

SW948 = assay: cells; assay type: functional, cell-based, Homo sapiens; details: Homo sapiens, SW948;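 further: growth inhibition of SW948 cells, read out with a cell viability assay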
Description: SANGER: Inhibition of human SW948 cell growth in a cell viability assay.

LoVo = assay: cells; assay type: functional, cell-based, Homo sapiens; details: Homo sapiens, LoVo;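 further: growth inhibition of human LoVo cells, read out with a cell viability assay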
Description: SANGER: Inhibition of human LoVo cell growth in a cell viability assay.

NCI-H28 = assay: cells; assay type: functional, cell-based, Homo sapiens; details: Homo sapiens, NCI-H28;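 further: growth inhibition of human NCI-H28 cells, read out as cell viability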
Description: SANGER: Inhibition of human NCI-H28 cell growth in a cell viability assay.

FTC-133 = assay: cells; assay type: functional, cell-based, Homo sapiens; details: Homo sapiens, FTC-133
NCI-H889 = assay: cells; assay type: functional, cell-based, Homo sapiens; details: Homo sapiens, NCI-H889;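 further: cell growth inhibition of the cell line, read out with a viability assay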
Description: SANGER: Inhibition of human NCI-H889 cell growth in a cell viability assay.

SCC-4 = assay: cells; assay type: functional, cell-based, Homo sapiens; details: Homo sapiens, SCC-4;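 further: growth inhibition of human SCC-4 cells, read out as cell viability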
Description: SANGER: Inhibition of human SCC-4 cell growth in a cell viability assay.

MC-IXC = assay: cells; assay type: functional, cell-based, Homo sapiens; details: Homo sapiens, MC-IXC;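 further: growth inhibition of MC-IXC cells, read out with a cell viability assay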
Description: SANGER: Inhibition of human MC-IXC cell growth in a cell viability assay.

KP-N-YN = assay: cells; assay type: functional, cell-based, Homo sapiens; details: Homo sapiens, KP-N-YN;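 further: growth inhibition of KP-N-YN cells, read out with a cell viability assay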
Description: SANGER: Inhibition of human KP-N-YN cell growth in a cell viability assay.

Work on `C#Cc1cccc(Nc2ncnc3cc(OCCOC)c(OCCOC)cc23)c1` [ERLOTINIB] yielded an IC50 (TUR) of over 2000 nM, an IC50 (SNU-16) of over 2000 nM and an IC50 (CESS) of over 2000 nM. The IC50 (NB7) was over 2000 nM, the IC50 (RPMI-6666) was over 2000 nM and the IC50 (SNU-C1) was over 2000 nM. For the same compound, the IC50 (D-542MG) was over 2000 nM, the IC50 (NCI-H719) was over 2000 nM and the IC50 (NCI-H345) was over 2000 nM. For the same compound, the IC50 (NCI-H2141) was over 2000 nM and the IC50 (IM-9) was over 2000 nM.
Work on `Nc1ccn([C@@H]2O[C@H](CO)[C@@H](O)C2(F)F)c(=O)n1` [GEMCITABINE] yielded an IC50 (MDA-MB-453) of over 1020 nM, an IC50 (K052) of 137 nM and an IC50 (TUR) of 32 nM. For the same compound, the IC50 (NCI-H650) was 566 nM, the IC50 (NCI-H2405) was 19.1 nM and the IC50 (CHL-1) was under 4 nM. For the same compound, the IC50 (SNU-16) was over 1020 nM, the IC50 (OE19) was 702 nM and the IC50 (CESS) was 23.2 nM. The IC50 (HCC70) was over 1020 nM, the IC50 (RPMI-6666) was under 4 nM and the IC50 (SK-MEL-28) was over 1020 nM. The IC50 (A-375) was under 4 nM, the IC50 (HuCCT-1) was 20.6 nM and the IC50 (23132-87) was 43.1 nM. The IC50 (CAL-54) was 298 nM, the IC50 (J82) was 7.41 nM and the IC50 (NCI-H1703) was 31.8 nM. It also gave an IC50 (C-33-A) of under 4 nM, an IC50 (DMS-273) of 3.07 nM and an IC50 (ASPC1) of over 1020 nM. For the same compound, the IC50 (HCC1419) was over 1020 nM, the IC50 (SNU-C1) was over 1020 nM and the IC50 (BEN) was 238 nM. For the same compound, the IC50 (D-542MG) was over 1020 nM, the IC50 (DU-145) was 9.29 nM and the IC50 (RD) was 130 nM. The IC50 (NCI-H719) was 892 nM, the IC50 (HPAF-II) was 428 nM and the IC50 (SW1573) was 457 nM. It also gave an IC50 (DK-MG) of over 1020 nM, an IC50 (NCI-H345) of over 1020 nM and an IC50 (CAL-27) of 35.2 nM. The IC50 (NCI-H2141) was 644 nM, the IC50 (NCI-H810) was 8.56 nM and the IC50 (SW948) was over 1020 nM. For the same compound, the IC50 (LoVo) was 5.71 nM, the IC50 (NCI-H28) was over 1020 nM and the IC50 (FTC-133) was 87.5 nM. It also gave an IC50 (NCI-H889) of over 1020 nM, an IC50 (SCC-4) of 212 nM and an IC50 (MC-IXC) of 2.26 nM. It also gave an IC50 (IM-9) of 347 nM.
`COc1cc2ncn(-c3cc(OCc4ccccc4S(C)(=O)=O)c(C#N)s3)c2cc1OC` [GSK-319347A] showed an IC50 (K052) of over 5000 nM, an IC50 (TUR) of over 5000 nM and an IC50 (SNU-16) of over 5000 nM. It also gave an IC50 (CESS) of over 5000 nM, an IC50 (NB7) of over 5000 nM and an IC50 (RPMI-6666) of over 5000 nM. It also gave an IC50 (KP-N-YN) of over 5000 nM, an IC50 (SNU-C1) of over 5000 nM and an IC50 (D-542MG) of over 5000 nM. It also gave an IC50 (NCI-H719) of over 5000 nM, an IC50 (NCI-H345) of over 5000 nM and an IC50 (NCI-H2141) of over 5000 nM. It also gave an IC50 (NCI-H889) of over 5000 nM and an IC50 (IM-9) of over 5000 nM.
`N[C@@H](CSC(c1ccccc1)(c1ccccc1)c1ccccc1)C(=O)O` [S-TRITYL-L-CYSTEINE] showed an IC50 (K052) of 971 nM, an IC50 (TUR) of over 5120 nM and an IC50 (SNU-16) of over 5120 nM. It also gave an IC50 (CESS) of 606 nM, an IC50 (NB7) of over 5120 nM and an IC50 (RPMI-6666) of over 5120 nM. The IC50 (SNU-C1) was over 5120 nM, the IC50 (NCI-H719) was over 5120 nM and the IC50 (NCI-H345) was over 5120 nM. It also gave an IC50 (NCI-H2141) of 4360 nM, an IC50 (NCI-H889) of over 5120 nM and an IC50 (IM-9) of over 5120 nM.
Work on `CC[C@H](CO)Nc1nc(NCc2ccccc2)c2ncn(C(C)C)c2n1` [SELICICLIB] yielded an IC50 (TUR) of over 16000 nM, an IC50 (SNU-16) of over 16000 nM and an IC50 (CESS) of over 16000 nM. It also gave an IC50 (NB7) of over 16000 nM, an IC50 (RPMI-6666) of 13900 nM and an IC50 (SNU-C1) of over 16000 nM. For the same compound, the IC50 (D-542MG) was over 16000 nM, the IC50 (NCI-H719) was over 16000 nM and the IC50 (NCI-H345) was over 16000 nM. It also gave an IC50 (NCI-H2141) of over 16000 nM, an IC50 (NCI-H889) of over 16000 nM and an IC50 (IM-9) of over 16000 nM.
`CCN(CC)CCNC(=O)c1c(C)[nH]c(/C=C2\C(=O)Nc3ccc(F)cc32)c1C` [SUNITINIB] gave an IC50 (K052) of 2400 nM, an IC50 (TUR) of over 8000 nM and an IC50 (SNU-16) of 1460 nM. For the same compound, the IC50 (CESS) was 7100 nM, the IC50 (NB7) was over 8000 nM and the IC50 (RPMI-6666) was 3540 nM. The IC50 (SNU-C1) was over 8000 nM, the IC50 (NCI-H719) was over 8000 nM and the IC50 (NCI-H345) was over 8000 nM. The IC50 (NCI-H2141) was over 8000 nM, the IC50 (NCI-H889) was over 8000 nM and the IC50 (IM-9) was over 8000 nM.
